Source: patent US20170029388A1, “Treatment of Neurodegenerative Diseases with Asparagine Endopeptidase (AEP) Inhibitors and Compositions Related Thereto” (INTERCONTINENTAL GREAT BRANDS LLC, priority 2014, published 2017)

What was measured:
[1] = target: CYP2C19 (Homo sapiens, UniProt P33261); assay: CYP inhibition screening, CYP2C19; assay type: in vitro ADME
[2] = target: CYP2D6 (Homo sapiens, UniProt P10635); assay: CYP inhibition screening, CYP2D6; assay type: in vitro ADME
[3] = system: cleavage of the amyloid precursor protein (APP); assay: OGD in primary cortical neurons, APP cleavage (immunoblot); assay type: cell-based
Protocol: A. AEP activity, measured in primary neuronal cultures with 5 μM Cbz-Ala-Ala-Asn-AMC (x-axis denotes neurons were treated with 0.1 μM or 1.0 μM specified compound). B. Caspase activity, measured in primary neuronal cultures with 5 μM Ac-Asp-Glu-Val-Asp-AMC. C. Cathepsin activity, measured in primary neuronal cultures with 5 μM D-Val-Leu-Lys-AMC. D. Inhibition of APP cleavage. Lysates of primary cortical neurons pre-incubated with compounds for 30 min, underwent OGD for 4 hrs, were reperfused for 18 hrs (normoxia neurons remained at normoxic conditions). E. APP can be cleaved in a dose-dependent manner. Lysates of primary cortical neurons pre-incubated with compounds for 30 min, underwent OGD for 4 hrs, were reperfused for 18 hrs (normoxia neurons remained at normoxic conditions).
Depriving cells of oxygen and glucose is a cellular model that is employed to trigger acidosis in cultured cells. The efficacy of the compounds in a cellular model of oxygen-glucose deprivation (OGD) was determined in an effort to mimic the effects of stroke in primary cultured neurons. As a result of depriving neurons of oxygen and glucose-containing medium, AEP activity was doubled (FIG. 7A, ‘DMSO-Norm’ compared to ‘DMSO-OGD’), while Caspase-3 and Cathepsin activities remained relatively unchanged. […] Cleavage of APP is observed in response to only DMSO treatment (FIG. 7D, lane 2), and it appears that upon the treatment of 1 μM of compounds 10, 11, and 12, and just 0.1 μM of compounds 31, 38 and 64, the cleavage was blocked, presumably due to AEP inhibition.
Compounds were pre-incubated with primary culture neurons, DIV13, for 30 min. The medium was exchanged for glucose-free DMEM and neurons were de-gased and incubated at 37° C., 95% N2/5% CO2 for 4 hrs with compounds. The medium was exchanged for DMEM and supplemented with compounds, then neurons were reperfused for 18 hrs under normoxic conditions. The neuronal lysates were prepared for AEP, Caspase-3 and Cathepsin assays. Moreover, immunoblotting analysis was conducted with the neuronal lysates using anti-APP, anti-AEP antibodies.

[4] = target: T1, CYP1A2 (Homo sapiens, UniProt P05177); assay: CYP inhibition screening, CYP1A2; assay type: in vitro ADME
T1 sequence (P05177 1-516): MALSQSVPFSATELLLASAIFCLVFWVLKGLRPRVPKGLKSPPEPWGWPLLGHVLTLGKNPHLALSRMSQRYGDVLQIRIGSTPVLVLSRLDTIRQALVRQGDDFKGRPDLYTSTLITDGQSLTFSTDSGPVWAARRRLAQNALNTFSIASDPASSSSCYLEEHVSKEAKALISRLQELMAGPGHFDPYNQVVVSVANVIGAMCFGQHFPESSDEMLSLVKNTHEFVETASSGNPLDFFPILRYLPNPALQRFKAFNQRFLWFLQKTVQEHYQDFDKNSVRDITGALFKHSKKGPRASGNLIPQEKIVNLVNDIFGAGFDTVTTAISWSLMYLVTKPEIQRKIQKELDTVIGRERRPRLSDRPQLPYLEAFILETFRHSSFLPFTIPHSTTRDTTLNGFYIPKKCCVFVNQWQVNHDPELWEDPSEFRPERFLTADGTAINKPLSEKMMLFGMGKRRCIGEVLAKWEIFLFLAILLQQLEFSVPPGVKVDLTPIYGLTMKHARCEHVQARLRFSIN

Sequence of CYP2C19 (P33261 whole entry): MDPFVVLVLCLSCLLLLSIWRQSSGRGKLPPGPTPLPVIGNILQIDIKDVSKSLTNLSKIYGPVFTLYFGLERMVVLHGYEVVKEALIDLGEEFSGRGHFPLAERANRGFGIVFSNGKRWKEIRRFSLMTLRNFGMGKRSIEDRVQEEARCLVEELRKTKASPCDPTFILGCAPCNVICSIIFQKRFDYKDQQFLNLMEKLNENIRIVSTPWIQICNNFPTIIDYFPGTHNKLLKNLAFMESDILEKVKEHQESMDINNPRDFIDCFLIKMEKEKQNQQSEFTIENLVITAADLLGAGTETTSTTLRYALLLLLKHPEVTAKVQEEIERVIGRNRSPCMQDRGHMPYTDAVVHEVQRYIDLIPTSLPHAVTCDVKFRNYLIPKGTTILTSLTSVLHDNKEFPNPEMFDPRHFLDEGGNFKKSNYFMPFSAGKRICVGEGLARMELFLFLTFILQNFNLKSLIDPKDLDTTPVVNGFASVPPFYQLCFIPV
Sequence of CYP2D6 (P10635 whole entry): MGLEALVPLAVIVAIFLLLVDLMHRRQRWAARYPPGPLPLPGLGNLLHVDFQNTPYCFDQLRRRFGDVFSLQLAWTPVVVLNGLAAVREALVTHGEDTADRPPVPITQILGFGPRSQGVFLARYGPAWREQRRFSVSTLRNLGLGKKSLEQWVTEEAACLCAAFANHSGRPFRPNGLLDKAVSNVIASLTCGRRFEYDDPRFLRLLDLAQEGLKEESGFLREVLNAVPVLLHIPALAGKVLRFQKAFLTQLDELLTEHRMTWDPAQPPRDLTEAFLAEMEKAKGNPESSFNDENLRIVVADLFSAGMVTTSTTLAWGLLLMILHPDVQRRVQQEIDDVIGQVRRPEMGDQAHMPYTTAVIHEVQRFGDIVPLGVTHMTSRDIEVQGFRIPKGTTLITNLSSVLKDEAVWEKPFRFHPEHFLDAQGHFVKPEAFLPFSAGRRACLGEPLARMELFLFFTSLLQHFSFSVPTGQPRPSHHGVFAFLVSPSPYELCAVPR

Structure (SMILES) | CYP inhibition, CYP2C19 ([1]; test concentration 3 μM) [%] | CYP inhibition, CYP2C19 ([1]; test concentration 10 μM) [%] | CYP inhibition, CYP2D6 ([2]; test concentration 3 μM) [%] | CYP inhibition, CYP2D6 ([2]; test concentration 10 μM) [%] | cleavage of APP after OGD ([3]; 1 μM compound) | CYP inhibition, CYP1A2 ([4]; test concentration 3 μM) [%] | CYP inhibition, CYP1A2 ([4]; test concentration 10 μM) [%] | cleavage of APP after OGD ([3]; 0.1 μM compound)
Nc1ccc(N2CCOCC2)c2nonc12 [Compound 11] | 4.4 | 6.8 | 7.8 | 21.9 | blocked | 13.1 | 37.0 | 
Cn1c(=O)[nH]c(=O)c2c1nc(S)n2CC(O)COc1ccc(Cl)cc1 (centres unmarked) [Compound 38] | −12.0 | 9.5 | −5.4 | 0.9 |  | −7.6 | 10.5 | blocked
